Laboratory results from patent publication US12479818B2, “Treatment of fibrosis with IRE1 small molecule inhibitors” (Cornell University, priority 2019, dated 2025).

biological target: IRE1a (Homo sapiens, UniProt O75460); assay: IRE1a Endoribonuclease Nanoluciferase Assay (XBP1 luciferase reporter in 293T cells); type: cell-based; set-up: endogenous in cells; host or cells: 293T; conditions: XBP1 nanoluciferase reporter in 293T cells, ER stressor; tested as the salt named
Experimental: Compounds disclosed herein were assessed for disruption of IRE1 signaling using a IRE1a Endoribonuclease Nanoluciferase Assay. […] About 24 hours later, the cells were transfected with Effectene. In a 15 mL tube, the following was added: 2 ug XBP1 luciferase reporter plasmid (PGK-Luc2-P2A-XBP1u-Nanoluciferase-PEST); 300 ul EC buffer; and 16 ul Enhancer, followed by incubation at room temp for 5 minutes. […] 2.6 mL cDMEM media was added. Old media was aspirated from the cells, followed by addition of 7 mL fresh media. Full transfection mixture was added dropwise to cells. Cells were incubated for 6 hours, followed by trypsinization, centrifugation and resuspension in 11 mL fresh cDMEM media. 100 μL of cells were plated per a well in a 96 well plate. A day later, ER stressors of choice +/− inhibitors were added. To harvest, media was aspirated from cells completely, then 50 uL 1× passive lysis buffer (Promega: E1941) was added per well and put on shaker (300 rpm) for 30 minutes at room temperature. […] 15 uL OneGlo (nanoluciferase kit, Promega N1630) was added. Plates were spun down, placed on shaker (300 rpm) for 10 minutes. Plates were read on luminometer, 1000 ms integration time per well. 15 uL Stop and Glo (nanoluciferase kit) was added. Plates were spun down, placed on shaker (300 rpm) for 10 minutes. Plates were read on luminometer, 1000 ms second integration time per well.

Chain of IRE1a (O75460 19-977): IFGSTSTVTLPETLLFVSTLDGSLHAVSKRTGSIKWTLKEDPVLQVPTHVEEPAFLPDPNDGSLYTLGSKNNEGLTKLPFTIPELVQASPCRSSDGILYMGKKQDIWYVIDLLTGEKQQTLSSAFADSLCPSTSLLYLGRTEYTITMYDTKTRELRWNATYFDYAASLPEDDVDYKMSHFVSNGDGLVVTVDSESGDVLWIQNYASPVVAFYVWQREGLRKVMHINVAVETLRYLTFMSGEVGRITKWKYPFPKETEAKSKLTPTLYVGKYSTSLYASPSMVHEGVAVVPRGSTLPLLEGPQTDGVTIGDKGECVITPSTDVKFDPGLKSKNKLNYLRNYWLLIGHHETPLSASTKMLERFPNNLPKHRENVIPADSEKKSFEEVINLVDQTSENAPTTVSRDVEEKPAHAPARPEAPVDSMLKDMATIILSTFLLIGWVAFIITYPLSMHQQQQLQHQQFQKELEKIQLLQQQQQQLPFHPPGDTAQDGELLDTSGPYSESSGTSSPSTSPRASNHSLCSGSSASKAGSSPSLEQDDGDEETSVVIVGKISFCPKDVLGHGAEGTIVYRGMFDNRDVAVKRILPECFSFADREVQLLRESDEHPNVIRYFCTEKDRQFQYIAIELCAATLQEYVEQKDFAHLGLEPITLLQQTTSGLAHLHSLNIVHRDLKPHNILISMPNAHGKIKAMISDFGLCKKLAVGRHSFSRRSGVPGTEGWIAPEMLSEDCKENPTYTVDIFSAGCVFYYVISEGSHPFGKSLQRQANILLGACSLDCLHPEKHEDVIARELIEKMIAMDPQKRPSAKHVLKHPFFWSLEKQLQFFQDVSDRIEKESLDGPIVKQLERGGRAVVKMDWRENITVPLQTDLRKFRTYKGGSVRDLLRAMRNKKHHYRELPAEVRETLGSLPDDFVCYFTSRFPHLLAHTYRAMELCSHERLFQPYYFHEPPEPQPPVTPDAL

| Structure (SMILES) | EC50 [nM] |
| --- | --- |
| CCc1cc(-c2nnc(NS(=O)(=O)c3ccccc3Cl)cc2C)cc2cnc(N[C@H]3CC[C@H](N)CC3)nc12 [Compound 67, N-(6-(2-(((lr,4r)-4-aminocyclohexyl)amino)-8-ethylquinazolin-6-yl)-5-methylpyridazin-3-yl)-2-chlorobenzene-sulfonamide] | 5 to 50 |
| N[C@H]1CC[C@H](Nc2ncc3cc(-c4cc(F)c(NS(=O)(=O)c5ccccc5Cl)cc4F)ccc3n2)CC1 [Compound 53, N-(4-(2-(((1r,4r)-4-aminocyclohexyl)amino)quinazolin-6-yl)-2,5-difluorophenyl)-2-chlorobenzene-sulfonamide] | < 5 |
| Cc1nc(NS(=O)(=O)c2ccccc2Cl)c(F)cc1-c1ccc2nc(N[C@H]3CC[C@H](N(C)C)CC3)ncc2c1 [Compound 153, 2-chloro-N-(5-(2-(((1r,4r)-4-(dimethylamino)cyclohexyl)amino)quinazolin-6-yl)-3-fluoro-6-methylpyridin-2-yl)benzenesulfonamide] | 5 to 50 |
| N[C@H]1CC[C@H](Nc2ncc3cc(-c4ccc(NS(=O)(=O)c5ccccc5Cl)cc4F)ccc3n2)CC1 [Compound 48, N-(4-(2-(((1r,4r)-4-aminocyclohexyl)amino)quinazolin-6-yl)-3-fluorophenyl)-2-chlorobenzene-sulfonamide] | 5 to 50 |
| CCc1cc(-c2ccc(NS(=O)(=O)c3ccccc3Cl)c(F)c2)cc2cnc(N[C@@H]3CC[C@@H](N)C3)nc12 [Compound 78] | < 5 |
| CCc1nc(NS(=O)(=O)c2ccccc2Cl)ccc1-c1cc(CC)c2nc(N[C@H]3CC[C@H](N(C)C)CC3)ncc2c1 [Compound 117, 2-chloro-N-(5-(2-(((1r,4r)-4-(dimethylamino)cyclohexyl)amino)-8-ethylquinazolin-6-yl)-6-ethylpyridin-2-yl)benzenesulfonamide] | < 5 |
| NC12CCC(Nc3ncc4cc(-c5ccc(NS(=O)(=O)c6ccccc6Cl)c(F)c5)ccc4n3)(CC1)CC2 [Compound 81, N-(4-(2-((4-aminobicyclo[2.2. 2]octan-1-yl)amino)quinazolin-6-yl)-2-fluorophenyl)-2-chlorobenzene-sulfonamide] | < 5 |
| NC12CCC(Nc3ncc4cc(-c5ccc(NS(=O)(=O)c6ccccc6Cl)c(F)c5)ccc4n3)(CC1)C2 [Compound 86, N-(4-(2-((4-aminobicyclo[2.2. 1]heptan-1-yl)amino)quinazolin-6-yl)-2-fluorophenyl)-2-chlorobenzene-sulfonamide] | 50 to 100 |
| CCc1cc(-c2ccc(NS(=O)(=O)c3ccccc3C)nc2OC)cc2cnc(N[C@H]3CC[C@H](N(C)C)CC3)nc12 [Compound 119, N-(5-(2-(((1r,4r)-4-(dimethylamino)cyclohexyl)amino)-8-ethylquinazolin-6-yl)-6-methoxypyridin-2-yl)-2-methylbenzenesulfonamide] | < 5 |
| CCc1c(F)c(-c2cc(F)c(NS(=O)(=O)c3ccccc3Cl)nc2OC)cc2cnc(N[C@H]3CC[C@H](N(C)C)CC3)nc12 [Compound 163, 2-chloro-N-(5-(2-(((1r,4r)-4-(dimethylamino)cyclohexyl)amino)-8-ethyl-7-fluoroquinazolin-6-yl)-3-fluoro-6-methoxypyridin-2-yl)benzenesulfonamide] | < 5 |
| COc1nc(NS(=O)(=O)c2ccccc2Cl)ccc1-c1cc(C(F)(F)F)c2nc(N[C@H]3CC[C@H](N(C)C)CC3)ncc2c1 [Compound 135, 2-chloro-N-(5-(2-(((1r,4r)-4-(dimethylamino)cyclohexyl)amino)-8-(trifluoromethyl)quinazolin-6-yl)-6-methoxypyridin-2-yl)benzenesulfonamide] | < 5 |
| CCc1cc(-c2ccc(NS(=O)(=O)c3ccccc3Cl)c(F)c2)cc2cnc(N[C@H]3CC4C[C@H](N)CC4C3)nc12 (stereo partly drawn) [Compound 82] | 5 to 50 |
| N[C@H]1CC[C@H](Nc2ncc3cc(-c4c(F)cc(NS(=O)(=O)c5ccccc5Cl)cc4F)ccc3n2)CC1 [Compound 62, N-(4-(2-(((1r,4r)-4-aminocyclohexyl)amino)quinazolin-6-yl)-3,5-difluorophenyl)-2-chlorobenzene-sulfonamide] | 5 to 50 |
| COCc1cc(-c2ccc(NS(=O)(=O)c3ccccc3Cl)nc2OC)cc2cnc(N[C@H]3CC[C@H](N(C)C)CC3)nc12 [Compound 137, 2-chloro-N-(5-(2-(((1r,4r)-4-(dimethylamino)cyclohexyl)amino)-8-(methoxymethyl)quinazolin-6-yl)-6-methoxypyridin-2-yl)benzenesulfonamide] | < 5 |
| COc1nc(NS(=O)(=O)c2ccccc2Cl)c(F)cc1-c1ccc2nc(N[C@H]3CC[C@H](N(C)C)CC3)ncc2c1 [Compound 149, 2-chloro-N-(5-(2-(((1r,4r)-4-(dimethylamino)cyclohexyl)amino)quinazolin-6-yl)-3-fluoro-6-methoxypyridin-2-yl)benzenesulfonamide] | 5 to 50 |
| COc1nc(NS(=O)(=O)c2ccccc2Cl)ccc1-c1cc(C(C)(F)F)c2nc(N[C@H]3CC[C@H](N(C)C)CC3)ncc2c1 [Compound 124, 2-chloro-N-(5-(8-(1,1-difluoroethyl)-2-(((1r,4r)-4-(dimethylamino)cyclohexyl)amino)quinazolin-6-yl)-6-methoxypyridin-2-yl)benzenesulfonamide] | < 5 |
| CCc1cc(-c2ccc(NS(=O)(=O)c3ccccc3Cl)c(F)c2)cc2cnc(N[C@H]3CC[C@H](N4CCCC4)CC3)nc12 [Compound 88, 2-chloro-N-(4-(8-ethyl-2-(((lr,4r)-4-(pyrrolidin-1-yl)cyclohexyl)amino)quinazolin-6-yl)-2-fluorophenyl) benzene-sulfonamide] | < 5 |

Further lines, results first:

| EC50 [nM] | Structure (SMILES) |
| --- | --- |
| < 5 | CCc1cc(-c2cnc(NS(=O)(=O)c3ccccc3Cl)nc2OC)cc2cnc(NC3CCC(N(C)C)CC3)nc12 (stereo not drawn) [Compound 154, 2-chloro-N-(5-(2-(((1r,4r)-4-(dimethylamino)cyclohexyl)amino)-8-ethylquinazolin-6-yl)-4-methoxypyrimidin-2-yl)benzenesulfonamide] |
| < 5 | Cc1nc(NS(=O)(=O)c2ccccc2Cl)ccc1-c1cc(C(C)(F)F)c2nc(N[C@H]3CC[C@H](N(C)C)CC3)ncc2c1 [Compound 131, 2-chloro-N-(5-(8-(1,1-difluoroethyl)-2-(((1r,4r)-4-(dimethylamino)cyclohexyl)amino)quinazolin-6-yl)-6-methylpyridin-2-yl)benzenesulfonamide] |
| 5 to 50 | CCCc1cc(-c2cc(NS(=O)(=O)c3ccccc3Cl)nn2C)cc2cnc(N[C@H]3CC[C@H](N)CC3)nc12 [Compound 47, N-(5-(2-(((1r,4r)-4-aminocyclohexyl)amino)-8-propylquinazolin-6-yl)-1-methyl-1H-pyrazol-3-yl)-2-chlorobenzene-sulfonamide] |
| 50 to 100 | Cc1nc(NS(=O)(=O)c2ccccc2Cl)ncc1-c1ccc2nc(N[C@H]3CC[C@H](N)CC3)ncc2c1 [Compound 68, N-(5-(2-(((1r,4r)-4-aminocyclohexyl)amino)quinazolin-6-yl)-4-methylpyrimidin-2-yl)-2-chlorobenzene-sulfonamide] |
| < 5 | CCc1cc(-c2cnc(NS(=O)(=O)c3ccccc3Cl)c(F)c2)cc2cnc(N[C@H]3CC[C@H](N(C)C)CC3)nc12 [Compound 95, 2-chloro-N-(5-(2-(((1r,4r)-4-(dimethylamino)cyclohexyl)amino)-8-ethylquinazolin-6-yl)-3-fluoropyridin-2-yl)benzenesulfonamide] |
| < 5 | CCc1cc(-c2ncc(NS(=O)(=O)c3ccccc3Cl)nc2OC)cc2cnc(N[C@H]3CC[C@H](N(C)C)CC3)nc12 [Compound 157, 2-chloro-N-(5-(2-(((1r,4r)-4-(dimethylamino)cyclohexyl)amino)-8-ethylquinazolin-6-yl)-6-methoxypyrazin-2-yl)benzenesulfonamide] |
| < 5 | CCc1cc(-c2ccc(NS(=O)(=O)c3ccccc3Cl)c(F)c2)cc2cnc(N[C@H]3CC[C@H](NC)CC3)nc12 [Compound 60, 2-chloro-N-(4-(8-ethyl-2-(((1r,4)-4-(methylamino)cyclohexyl)amino)quinazolin-6-yl)-2-fluorophenyl) benzene-sulfonamide] |
| < 5 | CCc1cc(-c2ccc(NS(=O)(=O)c3ccccc3Cl)nn2)cc2cnc(N[C@H]3CC[C@H](N(C)C)CC3)nc12 [Compound 64, 2-chloro-N-(6-(2-(((1r,4r)-4-(dimethylamino)cyclohexyl)amino)-8-ethylquinazolin-6-yl)pyridazin-3-yl)benzene-sulfonamide] |
| 5 to 50 | CCc1cc(-c2nnc(NS(=O)(=O)c3ccccc3Cl)cc2OC)cc2cnc(N[C@H]3CC[C@H](N)CC3)nc12 [Compound 65, N-(6--(2-(((lr,4r)-4-aminocyclohexyl)amino)-8-ethylquinazolin-6-yl)-5-methoxypyridazin-3-yl)-2-chlorobenzene-sulfonamide] |
| < 5 | CCc1cc(-c2ncc(NS(=O)(=O)c3ccccc3Cl)nc2OC)cc2cnc(N[C@H]3CC[C@H](N)CC3)nc12 [Compound 98, N-(5-(2-(((1r,4)-4-aminocyclohexyl)amino)-8-ethylquinazolin-6-yl)-6-methoxypyrazin-2-yl)-2-chlorobenzenesulfonamide] |
